Results: ChEMBL document CHEMBL4507266, “Data for DCP probe BAY-784” (2021)

Experiments:
[1] = biological target: Beta-3 adrenergic receptor (Homo sapiens) (UniProt P13945); conditions: Compound concentration 10.0 uM
[2] = biological target: ATP-sensitive inward rectifier potassium channel 11 (Cricetulus griseus) (UniProt A0A3L7HHE1); assay: Inhibition of Potassium Channel [KATP] at 10 µM in the Eurofins-Panlabs radioligand binding assay (Eurofins_assay_265600); conditions: Cricetinae; Compound concentration 10.0 uM
ATP-sensitive inward rectifier potassium channel 11 (Cricetulus griseus), sequence (A0A3L7HHE1 as listed by the source): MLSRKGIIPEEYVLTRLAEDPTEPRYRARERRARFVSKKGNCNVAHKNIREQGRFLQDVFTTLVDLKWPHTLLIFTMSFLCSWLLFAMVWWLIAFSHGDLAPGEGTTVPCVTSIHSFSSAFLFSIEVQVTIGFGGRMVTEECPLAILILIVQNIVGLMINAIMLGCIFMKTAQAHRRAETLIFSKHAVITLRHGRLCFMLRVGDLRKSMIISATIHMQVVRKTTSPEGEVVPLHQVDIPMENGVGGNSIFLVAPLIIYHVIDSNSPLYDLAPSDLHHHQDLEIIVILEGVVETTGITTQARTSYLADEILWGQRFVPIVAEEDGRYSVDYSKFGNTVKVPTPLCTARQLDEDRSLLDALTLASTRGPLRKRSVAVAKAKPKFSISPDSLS

[3] = biological target: Mitogen-activated protein kinase 14 (Homo sapiens) (UniProt Q16539); assay: Inhibition of Protein Serine/Threonine Kinase, MAPK14 (p38α) at 10 µM in the Eurofins-Panlabs enzyme assay (Eurofins_assay_176610); set-up: substrate with concentration; conditions: Compound concentration 10.0 uM
Mitogen-activated protein kinase 14 (Homo sapiens), sequence (Q16539 whole entry): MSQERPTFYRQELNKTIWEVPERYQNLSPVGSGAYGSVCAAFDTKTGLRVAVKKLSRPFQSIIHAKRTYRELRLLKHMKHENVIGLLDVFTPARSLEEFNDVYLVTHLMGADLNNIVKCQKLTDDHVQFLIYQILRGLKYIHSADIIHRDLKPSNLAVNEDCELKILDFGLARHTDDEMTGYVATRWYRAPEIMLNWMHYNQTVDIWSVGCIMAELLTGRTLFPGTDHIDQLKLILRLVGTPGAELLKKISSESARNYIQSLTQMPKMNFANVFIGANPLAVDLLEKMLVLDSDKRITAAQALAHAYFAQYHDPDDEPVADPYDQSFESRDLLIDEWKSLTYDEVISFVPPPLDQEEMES

[4] = biological target: Platelet-activating factor receptor (Homo sapiens) (UniProt P25105); assay: Inhibition of Platelet Activating Factor (PAF) at 10 µM in the Eurofins-Panlabs radioligand binding assay (Eurofins_assay_265010); conditions: Compound concentration 10.0 uM
Platelet-activating factor receptor (Homo sapiens), sequence (P25105 whole entry): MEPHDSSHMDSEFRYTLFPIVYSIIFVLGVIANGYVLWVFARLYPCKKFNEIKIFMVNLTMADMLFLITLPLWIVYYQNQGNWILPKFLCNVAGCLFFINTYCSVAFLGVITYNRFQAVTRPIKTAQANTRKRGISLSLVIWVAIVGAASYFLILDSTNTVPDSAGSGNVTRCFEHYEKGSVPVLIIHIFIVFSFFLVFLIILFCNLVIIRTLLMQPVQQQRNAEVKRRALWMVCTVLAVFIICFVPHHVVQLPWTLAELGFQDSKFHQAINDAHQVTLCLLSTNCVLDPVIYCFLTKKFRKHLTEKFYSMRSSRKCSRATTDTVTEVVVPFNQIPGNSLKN

[5] = biological target: T1, Alpha-1D adrenergic receptor (Homo sapiens) (UniProt P25100); assay: Inhibition of Adrenergic alpha1D at 10 µM in the Eurofins-Panlabs radioligand binding assay (Eurofins_assay_203400); conditions: Compound concentration 10.0 uM
T1 sequence (whole entry): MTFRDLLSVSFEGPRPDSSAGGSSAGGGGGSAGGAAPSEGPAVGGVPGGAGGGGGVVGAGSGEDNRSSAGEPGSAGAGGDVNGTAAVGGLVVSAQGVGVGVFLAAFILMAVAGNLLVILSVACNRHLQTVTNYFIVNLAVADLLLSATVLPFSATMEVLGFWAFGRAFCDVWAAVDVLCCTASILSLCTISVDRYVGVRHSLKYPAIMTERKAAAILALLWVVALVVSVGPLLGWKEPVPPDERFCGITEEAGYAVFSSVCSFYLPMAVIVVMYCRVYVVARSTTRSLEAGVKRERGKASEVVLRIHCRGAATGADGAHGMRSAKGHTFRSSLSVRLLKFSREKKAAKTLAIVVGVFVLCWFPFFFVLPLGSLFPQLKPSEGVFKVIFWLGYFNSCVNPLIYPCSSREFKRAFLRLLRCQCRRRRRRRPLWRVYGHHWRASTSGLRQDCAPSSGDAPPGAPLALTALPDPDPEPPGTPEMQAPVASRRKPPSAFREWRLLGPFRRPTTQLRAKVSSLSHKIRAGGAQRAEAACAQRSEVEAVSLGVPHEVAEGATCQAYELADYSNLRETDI

[6] = biological target: Sigma intracellular receptor 2 (Homo sapiens, UniProt Q5BJF2); assay: Inhibition of Sigma 2 at 10 µM in the Eurofins-Panlabs radioligand binding assay (Eurofins_assay_278200); set-up: ligand concentration 3 nM; conditions: Rattus norvegicus; Compound concentration 10.0 uM
Sigma intracellular receptor 2, sequence (Q5BJF2 whole entry): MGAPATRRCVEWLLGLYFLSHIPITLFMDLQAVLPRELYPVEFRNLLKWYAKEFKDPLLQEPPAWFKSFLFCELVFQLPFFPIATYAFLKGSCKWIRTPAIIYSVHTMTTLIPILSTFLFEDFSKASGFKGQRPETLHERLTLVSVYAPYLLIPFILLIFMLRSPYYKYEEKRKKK

[7] = biological target: Melanocortin receptor 3 (Homo sapiens) (UniProt P41968); assay: Inhibition of Melanocortin MC3 at 10 µM in the Eurofins-Panlabs radioligand binding assay (Eurofins_assay_251300); set-up: ligand concentration 0.035 nM; conditions: Compound concentration 10.0 uM
Melanocortin receptor 3 (Homo sapiens), sequence (P41968 whole entry): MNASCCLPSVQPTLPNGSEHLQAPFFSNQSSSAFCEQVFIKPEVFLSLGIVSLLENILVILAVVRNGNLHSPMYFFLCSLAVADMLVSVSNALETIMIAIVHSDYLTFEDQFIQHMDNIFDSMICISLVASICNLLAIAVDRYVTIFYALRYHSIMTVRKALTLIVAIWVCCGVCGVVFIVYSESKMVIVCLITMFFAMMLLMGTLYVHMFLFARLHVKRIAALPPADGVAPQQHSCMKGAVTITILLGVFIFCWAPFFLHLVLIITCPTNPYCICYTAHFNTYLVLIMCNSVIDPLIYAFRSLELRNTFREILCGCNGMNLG

[8] = biological target: Adenosine Transporter (Cavia porcellus) (UniProt H0V4R7+H0UUG1+H0V3Z5); assay: Inhibition of Transporter, Adenosine at compound concentration of 10.0 uM in the Eurofins-Panlabs radioligand binding assay (Eurofins_assay_202000); assay type: protein assay; set-up: ligand concentration 0.5 nM, non-specific ligand with concentration 5 uM Nitrobenzylthioinosine, incubation time 30 min, incubation temperature 25 C; conditions: Compound concentration 10.0 uM
Rattus norvegicus [9] = species: Rattus norvegicus; conditions: Compound concentration 10.0 uM
[10] = biological target: Cysteinyl leukotriene receptor 1 (Homo sapiens) (UniProt Q9Y271); assay: Inhibition of Leukotriene, Cysteinyl CysLT1 at 10 µM in the Eurofins-Panlabs radioligand binding assay (Eurofins_assay_250460); set-up: ligand concentration 0.3 nM, non-specific ligand with concentration 0.3 µM Leukotriene D4, incubation time 30 min, incubation temperature 25 °C; conditions: Compound concentration 10.0 uM
Cysteinyl leukotriene receptor 1 (Homo sapiens), sequence (Q9Y271 whole entry): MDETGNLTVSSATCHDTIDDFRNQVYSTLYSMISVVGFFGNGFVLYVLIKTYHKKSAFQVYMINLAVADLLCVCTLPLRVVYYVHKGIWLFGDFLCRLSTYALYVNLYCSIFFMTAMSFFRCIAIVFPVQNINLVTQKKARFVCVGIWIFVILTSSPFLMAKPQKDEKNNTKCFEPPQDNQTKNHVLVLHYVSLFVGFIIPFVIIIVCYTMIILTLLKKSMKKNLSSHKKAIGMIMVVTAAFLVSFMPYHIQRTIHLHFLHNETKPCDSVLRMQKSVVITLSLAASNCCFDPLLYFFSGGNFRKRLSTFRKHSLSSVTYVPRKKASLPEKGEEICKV

[11] = biological target: 5-hydroxytryptamine receptor 5A (Homo sapiens) (UniProt P47898); conditions: Compound concentration 10.0 uM
5-hydroxytryptamine receptor 5A (Homo sapiens), sequence (P47898 whole entry): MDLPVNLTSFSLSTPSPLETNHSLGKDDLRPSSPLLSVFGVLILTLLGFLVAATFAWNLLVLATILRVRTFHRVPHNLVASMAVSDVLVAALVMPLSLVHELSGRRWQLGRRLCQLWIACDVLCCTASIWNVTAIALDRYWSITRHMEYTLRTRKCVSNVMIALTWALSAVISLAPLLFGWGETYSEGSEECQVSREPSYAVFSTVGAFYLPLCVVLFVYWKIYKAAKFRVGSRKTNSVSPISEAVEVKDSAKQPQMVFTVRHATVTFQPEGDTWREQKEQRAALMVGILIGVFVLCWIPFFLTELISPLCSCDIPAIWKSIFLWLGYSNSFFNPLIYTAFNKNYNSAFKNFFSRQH

Homo sapiens = species: Homo sapiens; assay: Inhibition of Phosphodiesterase PDE4 at compound concentration of 10.0 uM in the Eurofins-Panlabs enzyme assay (Eurofins_assay_154000); assay type: protein assay; set-up: substrate with concentration 1.01 uM [3 H]cAMP + cAMP, incubation time 20 min, incubation temperature 25 C; conditions: Compound concentration 10.0 uM
[12] = biological target: 3-hydroxy-3-methylglutaryl-coenzyme A reductase (Homo sapiens) (UniProt P04035); assay: Inhibition of HMG-CoA Reductase at compound concentration of 10.0 uM in the Eurofins-Panlabs enzyme assay (Eurofins_assay_124010); set-up: substrate with concentration; conditions: Compound concentration 10.0 uM
3-hydroxy-3-methylglutaryl-coenzyme A reductase (Homo sapiens), sequence (P04035 whole entry): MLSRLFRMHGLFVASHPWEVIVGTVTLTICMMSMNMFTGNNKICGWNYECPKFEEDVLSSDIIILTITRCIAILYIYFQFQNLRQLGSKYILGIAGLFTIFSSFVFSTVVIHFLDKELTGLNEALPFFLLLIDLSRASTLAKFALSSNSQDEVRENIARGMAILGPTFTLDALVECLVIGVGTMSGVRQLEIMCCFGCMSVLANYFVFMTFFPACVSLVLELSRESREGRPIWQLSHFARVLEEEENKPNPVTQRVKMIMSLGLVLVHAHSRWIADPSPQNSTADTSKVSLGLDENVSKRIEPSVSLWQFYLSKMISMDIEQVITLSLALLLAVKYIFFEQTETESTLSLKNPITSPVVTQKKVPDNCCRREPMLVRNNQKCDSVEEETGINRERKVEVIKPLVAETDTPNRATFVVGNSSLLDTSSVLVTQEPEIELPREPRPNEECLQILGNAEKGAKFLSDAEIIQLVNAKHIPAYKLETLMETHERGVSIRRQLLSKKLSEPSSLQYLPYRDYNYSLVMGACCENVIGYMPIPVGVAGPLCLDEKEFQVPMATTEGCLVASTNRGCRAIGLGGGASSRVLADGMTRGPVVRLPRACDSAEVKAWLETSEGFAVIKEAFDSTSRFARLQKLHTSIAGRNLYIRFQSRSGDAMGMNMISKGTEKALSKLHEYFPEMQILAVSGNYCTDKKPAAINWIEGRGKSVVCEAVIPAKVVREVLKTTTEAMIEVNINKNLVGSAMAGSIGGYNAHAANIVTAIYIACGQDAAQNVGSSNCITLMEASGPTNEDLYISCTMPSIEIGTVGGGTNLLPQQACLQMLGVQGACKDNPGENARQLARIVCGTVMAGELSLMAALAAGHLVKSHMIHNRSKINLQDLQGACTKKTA

[13] = biological target: Mu-type opioid receptor (Homo sapiens) (UniProt P35372); conditions: Compound concentration 10.0 uM
Mu-type opioid receptor (Homo sapiens), sequence (P35372 whole entry): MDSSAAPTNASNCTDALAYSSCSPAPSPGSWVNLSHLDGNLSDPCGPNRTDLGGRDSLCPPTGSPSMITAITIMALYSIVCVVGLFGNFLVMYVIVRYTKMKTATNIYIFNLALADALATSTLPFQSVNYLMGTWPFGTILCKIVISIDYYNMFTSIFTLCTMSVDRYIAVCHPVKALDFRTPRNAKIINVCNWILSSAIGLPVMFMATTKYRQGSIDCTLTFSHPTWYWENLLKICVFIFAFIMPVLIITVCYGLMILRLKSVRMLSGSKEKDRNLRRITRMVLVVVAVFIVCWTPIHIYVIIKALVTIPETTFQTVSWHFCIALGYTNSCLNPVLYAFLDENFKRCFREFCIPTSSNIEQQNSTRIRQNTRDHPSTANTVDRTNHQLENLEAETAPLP

[14] = biological target: T2, Alpha-2B adrenergic receptor (Homo sapiens) (UniProt P18089); conditions: Compound concentration 10.0 uM
T2 sequence (whole entry): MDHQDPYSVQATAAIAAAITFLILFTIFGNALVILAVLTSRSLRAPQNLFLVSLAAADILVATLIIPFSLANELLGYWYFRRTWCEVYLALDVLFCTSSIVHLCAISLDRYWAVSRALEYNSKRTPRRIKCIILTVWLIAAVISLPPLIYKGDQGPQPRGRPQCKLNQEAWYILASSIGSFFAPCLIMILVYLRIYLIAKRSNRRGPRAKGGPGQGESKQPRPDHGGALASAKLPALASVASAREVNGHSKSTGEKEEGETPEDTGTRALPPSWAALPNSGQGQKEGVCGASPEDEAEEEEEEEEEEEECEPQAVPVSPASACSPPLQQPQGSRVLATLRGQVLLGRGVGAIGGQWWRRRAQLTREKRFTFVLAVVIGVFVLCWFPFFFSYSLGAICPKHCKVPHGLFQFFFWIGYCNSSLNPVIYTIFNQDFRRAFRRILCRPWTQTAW

[15] = biological target: Epidermal growth factor receptor (Homo sapiens) (UniProt P00533); assay: Protein Tyrosine Kinase, EGF Receptor Eurofins-Panlabs enzyme assay; set-up: substrate with concentration; conditions: Compound concentration 10.0 uM
Rattus norvegicus [16] = species: Rattus norvegicus; assay: Testosterone Eurofins-Panlabs radioligand binding assay; set-up: ligand concentration 1.5 nM; conditions: Compound concentration 10.0 uM
[17] = biological target: Beta-1 adrenergic receptor (Homo sapiens) (UniProt P08588); conditions: Compound concentration 10.0 uM
Beta-1 adrenergic receptor (Homo sapiens), sequence (P08588 whole entry, looked up): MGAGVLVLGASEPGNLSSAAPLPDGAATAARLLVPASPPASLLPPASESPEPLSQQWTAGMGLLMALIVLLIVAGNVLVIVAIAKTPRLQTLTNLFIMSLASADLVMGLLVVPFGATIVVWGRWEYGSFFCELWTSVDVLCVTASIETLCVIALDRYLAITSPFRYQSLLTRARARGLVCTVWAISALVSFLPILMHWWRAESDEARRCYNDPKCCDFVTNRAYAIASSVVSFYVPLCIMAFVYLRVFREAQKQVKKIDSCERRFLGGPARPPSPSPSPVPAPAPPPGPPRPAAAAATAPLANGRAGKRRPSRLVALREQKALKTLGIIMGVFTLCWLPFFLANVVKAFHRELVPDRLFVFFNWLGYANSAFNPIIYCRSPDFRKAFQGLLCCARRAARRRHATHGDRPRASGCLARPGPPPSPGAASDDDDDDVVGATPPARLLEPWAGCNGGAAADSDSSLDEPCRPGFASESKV

[18] = biological target: Tyrosine-protein kinase Lck (Homo sapiens) (UniProt P06239); assay: Inhibition of Protein Tyrosine Kinase, LCK at 10 µM in the Eurofins-Panlabs enzyme assay (Eurofins_assay_176020); conditions: Compound concentration 10.0 uM
[19] = biological target: T3, Alpha-2A adrenergic receptor (Homo sapiens) (UniProt P08913); assay: Adrenergic alpha2A Eurofins-Panlabs radioligand binding assay; set-up: ligand concentration 1 nM, non-specific ligand with concentration 10 µM WB-4101, incubation time 60 min, incubation temperature 25 °C; conditions: Compound concentration 10.0 uM
T3 sequence (whole entry): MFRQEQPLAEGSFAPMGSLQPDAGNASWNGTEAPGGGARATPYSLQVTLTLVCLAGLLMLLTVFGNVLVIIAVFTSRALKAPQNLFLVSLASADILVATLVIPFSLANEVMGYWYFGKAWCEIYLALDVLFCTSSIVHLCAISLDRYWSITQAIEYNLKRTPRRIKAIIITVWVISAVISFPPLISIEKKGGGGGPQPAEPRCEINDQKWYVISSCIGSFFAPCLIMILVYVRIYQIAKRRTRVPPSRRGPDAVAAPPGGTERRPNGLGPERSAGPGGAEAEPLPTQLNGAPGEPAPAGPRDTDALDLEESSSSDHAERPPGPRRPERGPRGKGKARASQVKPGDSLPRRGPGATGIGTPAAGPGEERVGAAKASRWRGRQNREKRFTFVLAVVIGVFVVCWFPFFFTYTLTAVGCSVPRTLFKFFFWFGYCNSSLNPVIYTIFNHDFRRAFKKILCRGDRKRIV

Measured: inhibition

Beta-3 adrenergic receptor (Homo sapiens), sequence (P13945 whole entry, looked up): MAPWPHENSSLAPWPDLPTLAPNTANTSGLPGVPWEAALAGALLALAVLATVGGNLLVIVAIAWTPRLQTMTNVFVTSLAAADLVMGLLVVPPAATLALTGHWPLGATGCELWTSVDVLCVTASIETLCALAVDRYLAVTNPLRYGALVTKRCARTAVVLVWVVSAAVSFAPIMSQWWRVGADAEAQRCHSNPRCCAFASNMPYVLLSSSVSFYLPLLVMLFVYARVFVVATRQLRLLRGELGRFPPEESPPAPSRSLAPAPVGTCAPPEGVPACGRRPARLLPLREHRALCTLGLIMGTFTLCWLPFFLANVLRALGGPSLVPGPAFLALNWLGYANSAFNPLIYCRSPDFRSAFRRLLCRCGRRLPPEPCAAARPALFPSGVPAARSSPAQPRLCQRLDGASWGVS

O=C(NCc1ncc(C(F)(F)F)cc1Cl)c1ccc2c(c1)C1(CCS(=O)(=O)CC1)[C@H](C1CC1)N2S(=O)(=O)c1ccc(F)cc1 [BAY-784]
inactive: [1] 0% | [2] 0% | [3] 50% | [4] 6% | [5] 18% | [6] 20% | [7] -7% | [8] 25% | Rattus norvegicus [9] 7.97% | [10] 4% | [11] -8.25% | Homo sapiens 2% | [12] 12% | [13] 16% | [14] 4% | [15] -3% | Rattus norvegicus [16] 16% | [17] 7% | [18] 0% | [19] -1%
